31 compounds from patent publication US9662310B2, “Cyclopropanecarboxylic acid derivative” (DAIICHI SANKYO COMPANY, LIMITED, priority 2010, dated 2017) can be followed below.

pIC50: −log10 of the molar value. Counter-ions that a name gives are not always drawn.

The first experiment deals with TAFIa (Homo sapiens (Human), UniProt Q96IY4). The experiment in a line: Determination of TAFIa enzyme inhibitory activity (FAAK substrate degradation). The class given is biochemical. The following applies: TAFI activated with human thrombin / rabbit lung thrombomodulin; substrate FAAK, absorbance at 330 nm; read-out: TAFIa IC50. The procedure: Determination of TAFIa Enzyme Inhibitory Activity
Chain of TAFIa (Q96IY4 115-423): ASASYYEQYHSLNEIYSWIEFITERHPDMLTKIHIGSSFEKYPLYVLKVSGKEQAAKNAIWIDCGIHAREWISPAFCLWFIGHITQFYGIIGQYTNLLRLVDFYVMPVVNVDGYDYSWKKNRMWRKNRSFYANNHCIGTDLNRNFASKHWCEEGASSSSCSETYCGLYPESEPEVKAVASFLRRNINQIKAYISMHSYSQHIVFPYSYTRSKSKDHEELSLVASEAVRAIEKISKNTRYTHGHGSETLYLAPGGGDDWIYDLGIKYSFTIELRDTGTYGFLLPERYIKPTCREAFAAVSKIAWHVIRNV
HEPES buffered saline (20 mM HEPES, 150 mM NaCl, pH 7.4; hereinafter, referred to as HBS) was used in the preparation of a reaction solution. To 12 μL of a 250 μg/mL TAFI solution, 30 μL of an HBS solution containing 4 U/mL human thrombin, 12 U/mL rabbit lung thrombomodulin, and 12 mM CaCl2 was added, and the mixture was gently stirred. Then, TAFI was activated at room temperature. Ten minutes later, thrombin was neutralized by the addition of 10 μL of 100 μM PPACK (thrombin inhibitor) to terminate the activation of TAFI. The formed TAFIa was stored in ice and diluted immediately before use in determination with 2050 μL of an HBS solution containing BSA (bovine serum albumin) adjusted to 0.1% in terms of the final concentration.
(2) Determination of TAFIa Inhibitory Activity
A test substance was dissolved in HBS to prepare a 10-fold dilution series of evaluation concentrations. 80 μL of the TAFIa solution and 10 μL of the test substance were added to each well of a 96-well plate and mixed by shaking for 10 minutes. 10 μL of furylacryloyl-alanyl-lysine (FAAK) adjusted to 5 mg/mL was added to each well, and the change in the absorbance of this mixed solution at 330 nm was read for 30 minutes to determine the degradation rate of the substrate.
(3) Calculation of Inhibitory Activity IC50
The degradation rate of the substrate in each well was applied to a standard curve prepared using the dilution series of the TAFIa solution to calculate TAFIa activity.
`Cc1ccc(-n2cnc([C@@]3(C(=O)O)C[C@@H]3CCCN)c2)nc1` (relative stereo) [Example 49, (1R*,2S*)-2-(3-Aminopropyl)-1-[1-(5-methylpyridin-2-yl)-1H-imidazol-4-yl]cyclopropanecarboxylic acid]: the pIC50 (usually the IC50 on a negative log10 scale, so that one unit is a factor of ten) is 7.74.

Consider `NCCC[C@H]1C[C@]1(C(=O)O)c1cn(-c2ccc(C(F)(F)F)cc2)cn1` (relative stereo) [Example 13, (1R*,2S*)-2-(3-Aminopropyl)-1-{1-[4-(trifluoromethyl)phenyl]-1H-imidazol-4-yl}cyclopropanecarboxylic acid], for which the pIC50 is 6.85.

On to `CC(CN)C[C@H]1C[C@]1(C(=O)O)c1cn(-c2ccc(S(C)(=O)=O)cc2)cn1` (relative stereo) [Example 34, (1R*,2S*)-2-(3-Amino-2-methylpropyl)-1-{1-[4-(methylsulfonyl)phenyl]-1H-imidazol-4-yl}cyclopropanecarboxylic acid], for which the pIC50 is 6.03.

For the compound `NCCC[C@H]1C[C@]1(C(=O)O)c1cn(-c2cccnc2)cn1` (relative stereo) [Example 24, (1R*,2S*)-2-(3-Aminopropyl)-1-(1-pyridin-3-yl-1H-imidazol-4-yl)cyclopropanecarboxylic acid], the pIC50 is 7.01.

Take `COc1ccc(-n2cnc([C@@]3(C(=O)O)C[C@@H]3CCCN)c2)cc1` (relative stereo) [Example 12, (1R*,2S*)-2-(3-Aminopropyl)-1-[1-(4-methoxyphenyl)-1H-imidazol-4-yl]cyclopropanecarboxylic acid]: the pIC50 is 7.44.

On to `CC(C)(C)CCn1cnc([C@]2(C(=O)O)C[C@H]2CCCN)c1` [Example 27, (1S,2R)-2-(3-Aminopropyl)-1-[1-(3,3-dimethylbutyl)-1H-imidazol-4-yl]cyclopropanecarboxylic acid], for which the pIC50 was under 7.00.

As for `C[C@H]1CC[C@H](n2cnc([C@@]3(C(=O)O)C[C@@H]3CCCN)c2)CC1` (relative stereo) [Example 5, (1R*,2S*)-2-(3-Aminopropyl)-1-[1-(trans-4-methylcyclohexyl)-1H-imidazol-4-yl]cyclopropanecarboxylic acid], the pIC50 is 7.85.

For `CC(CCN)[C@H]1C[C@]1(C(=O)O)c1cn(-c2ccccc2)cn1` (relative stereo) [Example 36, (1R*,2R*)-2-(3-Amino-1-methylpropyl)-1-(1-phenyl-1H-imidazol-4-yl)cyclopropanecarboxylic acid], the pIC50 was 7.44.

For `NCCC[C@H]1C[C@]1(C(=O)O)c1cn(/C=C/c2ccccc2)cn1` (relative stereo) [Example 14, (1R*,2S*)-2-(3-Aminopropyl)-1-{1-[(E)-2-phenylvinyl]-1H-imidazol-4-yl}cyclopropanecarboxylic acid], the pIC50 was 7.00.

For the compound `NCCC[C@H]1C[C@]1(C(=O)O)c1cn(-c2ccc(Cl)cc2)cn1` (relative stereo) [Example 18, (1R*,2S*)-2-(3-Aminopropyl)-1-[1-(4-chlorophenyl)-1H-imidazol-4-yl]cyclopropanecarboxylic acid], the pIC50 was 7.60.

On to `NCCC[C@H]1C[C@]1(C(=O)O)c1cn(-c2ccccc2)cn1` [Example 30, (1R,2S)-2-(3-Aminopropyl)-1-(1-phenyl-1H-imidazol-4-yl)cyclopropanecarboxylic acid], for which the pIC50 was 7.89.

Turning to `Cc1cccc(-n2cnc([C@@]3(C(=O)O)C[C@@H]3CCCN)c2)n1` (relative stereo) [Example 65, (1R*,2S*)-2-(3-Aminopropyl)-1-[1-(6-methylpyridin-2-yl)-1H-imidazol-4-yl]cyclopropanecarboxylic acid], the pIC50 is 7.14.

Turning to `NCCC[C@H]1C[C@]1(C(=O)O)c1cn(-c2ccc(Cl)cn2)cn1` (relative stereo) [Example 45, (1R*,2S*)-2-(3-Aminopropyl)-1-[1-(5-chloropyridin-2-yl)-1H-imidazol-4-yl]cyclopropanecarboxylic acid], the pIC50 is 7.20.

Take `Cc1ccc(-n2cnc([C@@]3(C(=O)O)C[C@@H]3CCCN)c2)cc1` (relative stereo) [Example 7, (1R*,2S*)-2-(3-Aminopropyl)-1-[1-(4-methylphenyl)-1H-imidazol-4-yl]cyclopropanecarboxylic acid]: the negative logarithm of the IC50 (pIC50) is 7.80.

`C[C@H](CN)C[C@@H]1C[C@@]1(C(=O)O)c1cn(-c2ccccn2)cn1` [Example 57, (1S,2R)-2-[(2S)-3-Amino-2-methylpropyl]-1-(1-pyridin-2-yl-1H-imidazol-4-yl]cyclopropanecarboxylic acid]: the pIC50 is 6.31.

Regarding `NCCC[C@H]1C[C@]1(C(=O)O)c1cn(-c2ccncc2)cn1` (relative stereo) [Example 23, (1R*,2S*)-2-(3-Aminopropyl)-1-(1-pyridin-4-yl-1H-imidazol-4-yl)cyclopropanecarboxylic acid hydrochloride], the pIC50 was 6.77.

Consider `NCCC[C@H]1C[C@]1(C(=O)O)c1cn(-c2ccccn2)cn1` (relative stereo) [Example 25, (1R*,2S*)-2-(3-Aminopropyl)-1-(1-pyridin-2-yl-1H-imidazol-4-yl)cyclopropanecarboxylic acid], for which the pIC50 was 7.54.

As for `CCCn1cnc([C@@]2(C(=O)O)C[C@@H]2CCCN)c1` (relative stereo) [Example 3, (1R*,2S*)-2-(3-Aminopropyl)-1-(1-propyl-1H-imidazol-4-yl)cyclopropanecarboxylic acid], the pIC50 is 7.01.

For `NCCC[C@H]1C[C@]1(C(=O)O)c1cn(-c2ccccn2)cn1` [Example 48, (1R,2S)-2-(3-Aminopropyl)-1-(1-pyridin-2-yl-1H-imidazol-4-yl)cyclopropanecarboxylic acid], the pIC50 was 7.96.

Take `Cc1ccc(-n2cnc([C@]3(C(=O)O)C[C@H]3C[C@@H](C)CN)c2)nc1` [Example 59, (1S,2R)-2-[(2R)-3-Amino-2-methylpropyl]-1-[1-(5-methylpyridin-2-yl)-1H-imidazol-4-yl]cyclopropanecarboxylic acid]: the pIC50 is 6.30.

In the case of `NCCC[C@H]1C[C@]1(C(=O)O)c1cn(-c2ccc3ccccc3c2)cn1` (relative stereo) [Example 21, (1R*,2S*)-2-(3-Aminopropyl)-1-[1-(2-naphthyl)-1H-imidazol-4-yl]cyclopropanecarboxylic acid], the pIC50 is 7.57.

Consider `C[C@@H](CN)C[C@H]1C[C@]1(C(=O)O)c1cn(-c2ccccn2)cn1` [Example 54, (1R,2S)-2-[(2R)-3-Amino-2-methylpropyl]-1-(1-pyridin-2-yl-1H-imidazol-4-yl]cyclopropanecarboxylic acid], for which the pIC50 is 7.96.

As for `C[C@@H](CN)C[C@@H]1C[C@@]1(C(=O)O)c1cn(-c2ccccn2)cn1` [Example 55, (1S,2R)-2-[(2R)-3-Amino-2-methylpropyl]-1-(1-pyridin-2-yl-1H-imidazol-4-yl]cyclopropanecarboxylic acid], the pIC50 was under 5.52.

On to `NCCC[C@H]1C[C@]1(C(=O)O)c1cn(-c2ccc(F)cc2)cn1` (relative stereo) [Example 15, (1R*,2S*)-2-(3-Aminopropyl)-1-[1-(4-fluorophenyl)-1H-imidazol-4-yl]cyclopropanecarboxylic acid], for which the pIC50 was 7.68.

For `NCCC[C@@H]1C[C@@]1(C(=O)O)c1cn(-c2ccccc2)cn1` [Example 29, (1S,2R)-2-(3-Aminopropyl)-1-(1-phenyl-1H-imidazol-4-yl)cyclopropanecarboxylic acid], the pIC50 was under 5.00.

On to `NCCC[C@H]1C[C@]1(C(=O)O)c1cn(-c2cccc(Cl)c2)cn1` (relative stereo) [Example 19, (1R*,2S*)-2-(3-Aminopropyl)-1-[1-(3-chlorophenyl)-1H-imidazol-4-yl]cyclopropanecarboxylic acid], for which the negative logarithm of the IC50 (pIC50) was 7.15.

With `C[C@H](CN)C[C@H]1C[C@]1(C(=O)O)c1cn(-c2ccccn2)cn1` [Example 56, (1R,2S)-2-[(2S)-3-Amino-2-methylpropyl]-1-(1-pyridin-2-yl-1H-imidazol-4-yl]cyclopropanecarboxylic acid], the negative logarithm of the IC50 (pIC50) was 7.48.

For the compound `NCCC[C@H]1C[C@]1(C(=O)O)c1cn(-c2ccc(O)nc2)cn1` (relative stereo) [Example 35, (1R*,2S*)-2-(3-Aminopropyl)-1-[1-(6-hydroxypyridin-3-yl)-1H-imidazol-4-yl]cyclopropanecarboxylic acid], the pIC50 is 6.47.

For `Cc1ccc(-n2cnc([C@@]3(C(=O)O)C[C@@H]3C[C@@H](C)CN)c2)nc1` [Example 58, (1R,2S)-2-[(2R)-3-Amino-2-methylpropyl]-1-[1-(5-methylpyridin-2-yl)-1H-imidazol-4-yl]cyclopropanecarboxylic acid], the pIC50 is 8.06.

The same experiment, now with this note: read-out: TAFIa IC50.
`CCC(CN)CC1C[C@]1(C(=O)O)c1cn(-c2ccccc2)cn1` (stereo partly drawn) [Example 53, (1R,2S)-2-[(2-Aminomethyl)butyl]-1-(1-phenyl-1H-imidazol-4-yl]cyclopropanecarboxylic acid]: the pIC50 was 7.89.

As to `CCC[C@@H](CN)C[C@H]1C[C@]1(C(=O)O)c1cn(-c2ccccn2)cn1` [Example 66, (1R,2S)-2-[(2R)-2-(Aminomethyl)pentyl]-1-(1-pyridin-2-yl-1H-imidazol-4-yl)cyclopropanecarboxylic acid], the pIC50 is 7.39.
